From patent publication US5164296A, “Assay methods involving ouabain” (priority 1990, dated 1992)
Like-named read-outs stand apart in the source and are kept apart here. Ends that are not written are not given here.

B1: Renin (protein, UniProt P00797 67-406, looked up)
Renin: LTLGNTTSSVILTNYMDTQYYGEIGIGTPPQTFKVVFDTGSSNVWVPSSKCSRLYTACVYHKLFDASDSSSYKHNGTELTLRYSTGTVSGFLSQDIITVGGITVTQMFGEVTEMPALPFMLAEFDGVVGMGFIEQAIGRVTPIFDNIISQGVLKEDVFSFYYNRDSENSQSLGGQIVLGGSDPQHYEGNFHYINLIKTGVWQIQMKGVSVGSSTLLCEDGCLALVDTGASYISGSTSSIEKLMEALGAKKRLFDYVVKCNEGPTLPDISFHLGGKEYTLTSADYVFQESYSSKKLCTLAIHAMDIPPPTGPTWALGATFIRKFYTEFDRRNNRIGFALAR

Key:
[1] = system: polyclonal anti-ouabain antisera; assay type: binding, rabbit
Procedure: Polyclonal anti-ouabain antisera was obtained from the immunized rabbits by collecting blood from the central ear artery, allowing the blood to clot for 2 hr at room temperature, centrifuging the clotted blood at 1000 ×g for 10 min, and removing the polyclonal anti-ouabain antisera.
The polyclonal antisera was extensively characterized by testing the degree to which it cross-reacted with (1) other substances known to be present in human body fluids and tissues, and (2) cardiotonic steroids closely related to ouabain but not known to be present in human body fluids and tissues.

[2] = molecular target: T1, (Na^+ +K^+)ATPase (Canis lupus familiaris, UniProt P50997); assay: Competition for ^3 H-ouabain binding to purified (Na^+ +K^+)ATPase; design: species or system dog; conditions: type II conditions
T1 construct: (Na^+ +K^+)ATPase was purified from the outer medulla of dog kidney; from tissue; host or cells: dog kidney outer medulla, purified membrane enzyme
Procedure: (§1) More specifically, (Na^+ +K^+)ATPase was purified from the outer medulla of dog kidney using the angle rotor procedure (Jorgensen, P.L., Biochim. Biophys. Acta, 356:36-52 (1974)) and stored frozen at -60° C. at 1.0 mg/ml in 25 mM imidazole-HCl (pH 7.5) and 1.0 mM EDTA, in small aliquots. (Na^+ +K^+)ATPase activity was determined at 37° C. from rate measurements in 1.0 ml of coupled optical assay mixture comprising 20 mM KCl, 100 mM NaCl, 4.5 mM MgSO4, 5.0 mM EGTA, 3.0 mM ATP-Na2, 1.2 mM phosphoenol-pyruvate-tricyclohexylammonium, 0.3 mM NADH, 100 mM TES-Tris (ph 7.4), 5.0 units of lactate dehydrogenase, and 5.0 units of pyruvate kinase (Hamlyn, J.M. et al, Nature, 300:650-652 (1982)). (Na^+ +K^+)ATPase activity was 99% ouabain-inhibitable with activities of 10-18 μmol/min/mg of membrane protein. Maximally effective concentrations of digitalis-like activity had no effect on the enzymatic components of the coupled optical assay as determined by inspection of rates in response to addition of 20-50 μM ADP. The maximal capacity of the coupled optical assay was at least 500-2000 fold greater than the typical maximal hydrolytic rate of the (Na^+ +K^+)ATPase and was not rate limiting under any assay condition described herein.
Competition for ^3 H-ouabain (Amersham Corp. or DuPont-New England Nuclear) binding was carried out in 670 μl of binding buffer comprising, in final concentrations, 10 mM TES-Tris (pH 7.4), 0.5 mM EDTA, 5.0 mM MgCl2 and 5.0 mM Na2 HPO4 (hereinafter "binding buffer") and 50 nM ouabain containing ^3 H-ouabain tracer, and including the unknown sample. Binding was initiated by addition of 0.1-2 μg of purified (Na^+ +K^+)ATPase and the reaction performed for 2 hr at 37° C. […] Trapped ^3 H-ouabain was determined by scintillation counting, following 12 hr of soaking the filters in 4.0 ml of Beckman Ready Protein ™ scintillation cocktail (Beckman, Palo Alto, Calif.). […] All binding data were corrected for quench, and specific binding was expressed as pmol/mg of enzyme protein. […]

[3] = molecular target: T1, (Na^+ +K^+)ATPase; assay: Inhibition of (Na^+ +K^+)ATPase activity (coupled optical assay); assay type: biochemical, dog; conditions: purified dog kidney enzyme, 37° C.
Procedure: as §1
The inhibition of (Na^+ +K^+)ATPase was carried out as described above.

[4] = system: left atria from guinea pigs; assay: Inotropic properties in left atria from guinea pigs; design: species or system guinea pig
Procedure: Atria were incubated at 37° C. in phosphate buffered saline comprising 130 mM NaCl, 5.4 mM KCl, 1.8 mM MgCl2, 0.4 mM NaH2 PO4, 19 mM NaHCO3 and 5.4 g of glucose (pH 7.3-7.4), and gassed with 95% O2 /5% CO2. Tissues were stimulated at 1 Hz with twice threshold square pulses (0.8 to 1.0 V) of 0.7 to 1.2 msec duration. Resting tension was optimized for maximum isometric force generation. Control records were obtained once the phasic force was stabilized. […] For comparison, 200 nM plant ouabain evoked an inotropic response of 311±41% (N=4 experiments) which returned to normal with a half-time of approximately 5 min upon washout.

[5] = system: rings of aorta from guinea pigs; assay: Vasoactive properties in rings of aorta from guinea pigs; design: species or system guinea pig
Procedure: The aortic rings were incubated at 37° C. in phosphate buffered saline. The rings were submaximally contracted for 3 to 7 min, every 35 min, with 0.2 or 1.0 μM histamine. […] The apparent half-time for washout of the augmented tension response in the presence of plant ouabain was also much greater than 60 min.

[6] = Table 1, polyclonal anti-ouabain antisera

Molecule	cross-reactivity (relative to ouabain) [1, 6]	also measured
C[C@]12CC[C@H](O)CC1=CC[C@@H]1[C@@H]2CC[C@]2(C)C(=O)CC[C@@H]12 [Dehydroisoandrosterone]	None detected	
CC(C)CCC[C@@H](C)[C@H]1CC[C@H]2[C@@H]3CC=C4C[C@@H](O)CC[C@]4(C)[C@H]3CC[C@]12C [Cholesterol]	None detected	
O=C(O)CC(O)(CC(=O)O)C(=O)O [Citrate]	None detected	
C[C@]12CC[C@H]3[C@@H](CCC4=CC(=O)CC[C@@]43C)[C@@H]1CC[C@@H]2C(=O)CO [Deoxycorticosterone]	0.0046%	
C[C@]12C[C@@H](O)[C@H]3[C@@H](CC[C@]4(O)C[C@@H](O)C[C@@H](O)[C@]34CO)[C@@]1(O)CC[C@@H]2C1=CC(=O)OC1 [Ouabagenin]	40%	
C[C@]12C[C@H](O)[C@H]3[C@@H](CCC4=CC(=O)CC[C@@]43C)[C@@H]1CC[C@@H]2C(=O)CO [Corticosterone]	0.0035%	
C[C@H]1O[C@@H](O[C@H]2[C@@H](O)C[C@H](O[C@H]3[C@@H](O)C[C@H](O[C@H]4CC[C@@]5(C)[C@H](CC[C@@H]6[C@@H]5C[C@@H](O)[C@]5(C)[C@@H](C7=CC(=O)OC7)CC[C@]65O)C4)O[C@@H]3C)O[C@@H]2C)C[C@H](O)[C@@H]1O [Digoxin]	5.2%	
C[C@]12CC[C@H]3[C@@H](CCC4=CC(=O)CC[C@@]43C)[C@@H]1CC[C@@H]2O [Testosterone]		cross-reactivity (relative to ouabain) ([1]; Table 1, printed without unit): 0.0042
CC(=O)[C@H]1CC[C@H]2[C@@H]3CCC4=CC(=O)CC[C@]4(C)[C@H]3CC[C@]12C [Progesterone]	0.0011%	
Atrial natriuretic peptide (SLRRSSCFGGRMDRIGAQSGLGCNSFRY; ends and bridges not checked; cysteine pairing not given here; UniProt P01160 124-151, looked up)	None detected	
Angiotensin I (DRVYIHPFHL; Angiotensin-1; UniProt P01019 25-34, looked up)	None detected	
C[C@@H]1O[C@@H](O[C@H]2C[C@@H](O)[C@]3(CO)[C@H]4[C@H](O)C[C@]5(C)[C@@H](C6COC(=O)C6)CC[C@]5(O)[C@@H]4CC[C@]3(O)C2)[C@H](O)[C@H](O)[C@H]1O (stereo partly drawn) [Dihydroouabain]	0.16%	
CC(=O)O[C@]1(C(C)=O)CC[C@H]2[C@@H]3C=C(Cl)C4=CC(=O)CC[C@]4(C)[C@H]3CC[C@@]21C [Chlormadinone acetate]	None detected	
NC(=O)CC[C@@H]1NC(=O)[C@H](Cc2ccccc2)NC(=O)[C@H](Cc2ccc(O)cc2)NC(=O)[C@@H](N)CSSC[C@@H](C(=O)N2CCC[C@H]2C(=O)N[C@@H](CCCN=C(N)N)C(=O)NCC(N)=O)NC(=O)[C@H](CC(N)=O)NC1=O [Arginine vasopressin]	None detected	
Angiotensin II	None detected	
C[C@]12CC[C@H]3[C@@H](CC[C@]4(O)C[C@@H](O)CC[C@]34C=O)[C@@]1(O)CC[C@@H]2C1=CC(=O)OC1 [Strophanthidin]	66%	
C[C@]12CCC(=O)C=C1CC[C@@H]1[C@@H]2[C@@H](O)C[C@]2(C=O)[C@@H](C(=O)CO)CC[C@@H]12 [Aldosterone]	0.012%	
C[C@@H]1O[C@@H](O[C@H]2C[C@@H](O)[C@]3(CO)[C@H]4[C@H](O)C[C@]5(C)[C@@H](C6=CC(=O)OC6)CC[C@]5(O)[C@@H]4CC[C@]3(O)C2)[C@H](O)[C@H](O)[C@H]1O [^3 H-ouabain]		^3 H-ouabain bound (typical values) [2]: 75-85 pmol/mg of enzyme protein
C[C@]12CC[C@H](OS(=O)(=O)O)CC1=CC[C@@H]1[C@@H]2CC[C@]2(C)C(=O)CC[C@@H]12 [Dehydroisoandrosterone-3-sulfate]	None detected	
C[C@@H]1O[C@@H](O[C@H]2C[C@@H](O)[C@]3(CO)[C@H]4[C@H](O)C[C@]5(C)[C@@H](C6=CC(=O)OC6)CC[C@]5(O)[C@@H]4CC[C@]3(O)C2)[C@H](O)[C@H](O)[C@H]1O [ouabain]		(Na^+ +K^+)ATPase activity ouabain-inhibitable [3]: 99%; activation at 0.2 µM ([4]; Cavia porcellus, read-out: inotropic response): 311 ± 41%; apparent half-time for washout of the inotropic response ([4]; upon washout): approximately 5 min; effect on baseline tension ([5]; 170 nM human ouabain, 200 nM plant ouabain): did not affect baseline tension; activity at 0.2 µM ([5]; Cavia porcellus, read-out: histamine-evoked tension, % of control): 146 ± 16%; apparent half-time for washout of the augmented tension response ([5]; upon washout): greater than 60 min
CC(=O)O[C@H]1C[C@H](O[C@H]2[C@@H](O)C[C@H](O[C@H]3[C@@H](O)C[C@H](O[C@H]4CC[C@@]5(C)[C@H](CC[C@@H]6[C@@H]5C[C@@H](O)[C@]5(C)[C@@H](C7=CC(=O)OC7)CC[C@]65O)C4)O[C@@H]3C)O[C@@H]2C)O[C@H](C)[C@H]1O[C@@H]1O[C@H](CO)[C@@H](O)[C@H](O)[C@H]1O [Lanatoside C]	2.49%	
C[C@]12CCC(=O)C=C1CC[C@@H]1[C@@H]2[C@@H](O)C[C@@]2(C)[C@H]1CC[C@]2(O)C(=O)CO [Hydrocortisone]	None detected	
C[C@H]1O[C@@H](O[C@H]2[C@@H](O)C[C@H](O[C@H]3[C@@H](O)C[C@H](O[C@H]4CC[C@@]5(C)[C@H](CC[C@@H]6[C@@H]5CC[C@]5(C)[C@@H](C7=CC(=O)OC7)CC[C@]65O)C4)O[C@@H]3C)O[C@@H]2C)C[C@H](O)[C@@H]1O [Digitoxin]	28%	
C[C@]12CC[C@@H]3c4ccc(O)cc4CC[C@H]3[C@@H]1CC[C@@H]2O [β-estradiol]	None detected	
B1	None detected	
